≈ marks a conversion by molar mass, not a printed value. Each block holds one compound with its values, some of them ahead of it. Calls of active or inactive are those of the source. The calls are words filed in the database; no cut-off is given here.
Columns and labels:
[1] = target: T1, NAD-dependent protein deacylase sirtuin-6 (Homo sapiens, UniProt Q8N6T7); assay: Inhibition of human recombinant SIRT6 assessed as reduction in NAD+-dependent deacetylase activity at 200 uM using Arg-His-Lys-Lys(epsilon-acetyl)-AMC substrate and NAD+ by fluorescence based assay
[2] = target: T2, NAD-dependent protein deacetylase sirtuin-1 (Homo sapiens, UniProt Q96EB6); assay: Inhibition of human recombinant SIRT1 assessed as reduction in NAD+-dependent deacetylase activity using Arg-His-Lys-Lys(epsilon-acetyl)-AMC substrate and NAD+ by fluorescence based assay
T2 sequence (Q96EB6 whole entry): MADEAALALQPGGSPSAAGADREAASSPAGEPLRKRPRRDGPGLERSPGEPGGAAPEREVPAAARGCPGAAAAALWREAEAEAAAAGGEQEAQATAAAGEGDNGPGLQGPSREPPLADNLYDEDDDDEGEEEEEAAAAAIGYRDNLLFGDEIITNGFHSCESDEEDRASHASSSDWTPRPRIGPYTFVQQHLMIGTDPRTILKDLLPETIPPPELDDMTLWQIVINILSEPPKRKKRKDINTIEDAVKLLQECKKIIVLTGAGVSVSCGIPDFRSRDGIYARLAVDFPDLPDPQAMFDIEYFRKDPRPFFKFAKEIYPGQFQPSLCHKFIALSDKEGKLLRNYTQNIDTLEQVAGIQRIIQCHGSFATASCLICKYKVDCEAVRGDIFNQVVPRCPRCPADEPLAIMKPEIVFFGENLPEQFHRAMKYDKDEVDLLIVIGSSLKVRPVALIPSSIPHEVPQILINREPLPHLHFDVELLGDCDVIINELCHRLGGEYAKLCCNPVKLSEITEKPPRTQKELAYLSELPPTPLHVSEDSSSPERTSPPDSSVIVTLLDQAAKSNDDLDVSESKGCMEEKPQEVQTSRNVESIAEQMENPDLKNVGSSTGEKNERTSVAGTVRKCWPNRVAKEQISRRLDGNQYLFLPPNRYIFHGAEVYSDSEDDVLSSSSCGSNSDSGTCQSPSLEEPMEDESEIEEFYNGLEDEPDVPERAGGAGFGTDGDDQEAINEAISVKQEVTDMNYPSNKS

[3] = target: T3, NAD-dependent protein deacetylase sirtuin-2 (Homo sapiens, UniProt Q8IXJ6); assay: Inhibition of human recombinant SIRT2 assessed as reduction in NAD+-dependent deacetylase activity using Arg-His-Lys-Lys(epsilon-acetyl)-AMC substrate and NAD+ by fluorescence based assay
T3 sequence (Q8IXJ6 whole entry): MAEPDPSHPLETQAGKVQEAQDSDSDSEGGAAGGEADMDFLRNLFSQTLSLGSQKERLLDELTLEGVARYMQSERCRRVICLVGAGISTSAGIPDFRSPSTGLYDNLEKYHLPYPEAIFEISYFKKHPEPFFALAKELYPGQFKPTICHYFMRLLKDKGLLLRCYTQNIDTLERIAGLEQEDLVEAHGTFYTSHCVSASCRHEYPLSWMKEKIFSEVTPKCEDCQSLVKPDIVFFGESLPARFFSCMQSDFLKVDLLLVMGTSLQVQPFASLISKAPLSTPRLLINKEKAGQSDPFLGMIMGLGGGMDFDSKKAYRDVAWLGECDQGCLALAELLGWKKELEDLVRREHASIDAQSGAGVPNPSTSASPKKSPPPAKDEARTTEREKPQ

[4] = target: T1, NAD-dependent protein deacylase sirtuin-6; assay: Competitive inhibition of human recombinant SIRT6 assessed as reduction in NAD+-dependent deacetylase activity at 50 uM using fixed Arg-His-Lys-Lys(epsilon-acetyl)-AMC substrate and varying NAD+ by fluorescence based assay based double-reciprocal plot
[5] = target: T1, NAD-dependent protein deacylase sirtuin-6; assay: Competitive inhibition of human recombinant SIRT6 assessed as reduction in NAD+-dependent deacetylase activity at 50 uM using varying Arg-His-Lys-Lys(epsilon-acetyl)-AMC substrate and fixed NAD+ by fluorescence based assay based double-reciprocal plot
[6] = target: T1, NAD-dependent protein deacylase sirtuin-6; assay: Inhibition of SIRT6 in human BxPC3 cells assessed as increase in H3K9 acetylation by immunoblotting relative to untreated control; assay type: cell-based; design: concentration or dose not given beside the values
[7] = target: T1, NAD-dependent protein deacylase sirtuin-6; assay: Inhibition of SIRT6 in human BxPC3 cells assessed as increase in 2-NBDG uptake at 100 uM incubated for 18 hrs by glucose uptake assay; assay type: cell-based
[8] = target: T1, NAD-dependent protein deacylase sirtuin-6; assay: Inhibition of SIRT6 in human BxPC3 cells assessed as reduction in TNFalpha production at 100 uM incubated for 18 hrs by ELISA method; assay type: cell-based
[9] = target: T1, NAD-dependent protein deacylase sirtuin-6; assay: Inhibition of SIRT6 in human BxPC3 cells assessed as potentiation of gemcitabine-induced cytotoxicity at 30 uM incubated for 72 hrs by Cell-titer96 aqueous one assay; assay type: cell-based
BXPC-3 = assay: Toxicity in human BxPC3 cells assessed as reduction in cell viability at 30 uM incubated for 72 hrs by Cell-titer96 aqueous one assay; assay type: cell-based; conditions: bxpc-3, 72 h
[10] = Ionisation constant, pKa of the compound; assay type: physicochemical
[11] = Partition coefficient, log P of the compound; assay type: physicochemical; conditions: octanol/water
[12] = Intrinsic aqueous solubility in surfactant in 9% Tween 80; assay type: physicochemical; conditions: 9% Tween 80 surfactant solution
[13] = Intrinsic aqueous solubility in 1.96% Soluplus solution; assay type: physicochemical
[14] = Intrinsic aqueous solubility in 23% Captisol; assay type: physicochemical
[15] = Intrinsic aqueous solubility in PBS at pH 7.4; assay type: physicochemical
[16] = Fraction unbound in human plasma at 1 ug/ml by rapid equilibrium dialysis; assay type: ADME, cell-free
[17] = Fraction unbound in human plasma at 10 ug/ml by rapid equilibrium dialysis; assay type: ADME, cell-free
[18] = Fraction unbound in mouse plasma at 1 ug/ml by rapid equilibrium dialysis; assay type: ADME, cell-free
[19] = Fraction unbound in mouse plasma at 10 ug/ml by rapid equilibrium dialysis; assay type: ADME, cell-free
[20] = Stability in mouse plasma assessed as half life at 1 uM at 37 degC measured after 4 hrs; assay type: ADME, cell-free; conditions: 4 h, 1 µM
[21] = AUC (0 to t) in ICR mouse at 5 mg/kg, ip by LC-MS/MS method; assay type: ADME, organism-based; conditions: in vivo
[22] = AUC (0 to infinity) in ICR mouse at 5 mg/kg, ip by LC-MS/MS method; assay type: ADME, organism-based; design: dose 5 mg/kg, route intraperitoneal, time infinity; conditions: in vivo
[23] = MRT (0 to infinity) in ICR mouse at 5 mg/kg, ip by LC-MS/MS method; assay type: ADME, organism-based; conditions: in vivo
[24] = Terminal half life in ICR mouse at 5 mg/kg, ip by LC-MS/MS method; assay type: ADME, organism-based; conditions: in vivo, read-out: beta t1/2 (converted)
[25] = Tmax in ICR mouse at 5 mg/kg, ip by LC-MS/MS method; assay type: ADME, organism-based; conditions: in vivo
[26] = Cmax in ICR mouse at 5 mg/kg, ip by LC-MS/MS method; assay type: ADME, organism-based; design: dose 5 mg/kg, route intraperitoneal; conditions: in vivo
Mus musculus = assay: Toxicity in ICR mouse assessed as induction of abnormalities at 5 mg/kg, ip; assay type: organism-based; conditions: in vivo

T1 sequence (Q8N6T7 whole entry): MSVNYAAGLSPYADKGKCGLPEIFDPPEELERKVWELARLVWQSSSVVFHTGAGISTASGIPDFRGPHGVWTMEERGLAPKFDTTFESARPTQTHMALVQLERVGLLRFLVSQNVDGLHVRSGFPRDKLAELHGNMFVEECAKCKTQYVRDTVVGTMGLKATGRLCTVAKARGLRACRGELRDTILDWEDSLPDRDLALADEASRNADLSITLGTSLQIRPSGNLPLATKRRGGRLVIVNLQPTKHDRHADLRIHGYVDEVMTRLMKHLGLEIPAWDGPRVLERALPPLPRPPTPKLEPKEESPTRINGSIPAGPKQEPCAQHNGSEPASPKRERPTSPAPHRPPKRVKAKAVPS

SMILES: Cc1cc(O)c(C(=O)O)cc1S(=O)(=O)Nc1ccc(NC(=O)NCC2CCCO2)cc1 (stereo not drawn)
inhibition [1]: 17%

SMILES: O=C(O)c1cc(NC(=O)c2cccc(N3C(=O)CCC3=O)c2)cc(C(=O)O)c1
inhibition [1]: 68%

SMILES: O=C(O)c1cccc(NC(=O)c2cccc(N3C(=O)CCS3(=O)=O)c2)c1
inhibition [1]: 5%

SMILES: O=C(Nc1ccc(C(=O)O)c(O)c1)c1cccc(NC(=O)c2ccco2)c1
inhibition [1]: 62%

SMILES: O=C(Cc1cccs1)Nc1cccc(C(=O)Nc2cccc(C(=O)O)c2)c1
inhibition [1]: inactive

SMILES: CCC(=O)Nc1ccc(C(=O)Nc2ccc(C(=O)O)c(O)c2)cc1
inhibition [1]: 70%

SMILES: CC(=O)Nc1cccc(NS(=O)(=O)c2cc(C(=O)O)c(O)cc2C)c1
inhibition [1]: inactive

Second part, led by results:

inhibition [1]: 50%
SMILES: O=C(Nc1ccc(O)c(C(=O)O)c1)c1ccc(NC(=O)C2CC2)cc1

inhibition [1]: 54%
SMILES: CCC(CC)C(=O)Nc1cccc(C(=O)Nc2cccc(C(=O)O)c2)c1

inhibition [1]: 100%
IC50 [2]: 783 µM
IC50 [3]: 453 µM
inhibition [4]: Active
inhibition [5]: Active
fold change (FC) [6]: 1.9
fold change (FC) [7]: 1.4
inhibition [8]: 78%
pKa [10]: 2.58
logP [11]: 2.6
solubility [12]: 1700 µg/mL (≈ 4640 µM)
solubility [13]: 760 µg/mL (≈ 2070 µM)
solubility [14]: 650 µg/mL (≈ 1770 µM)
solubility [15]: 1400 µg/mL (≈ 3820 µM)
fraction unbound at 1 ug/ml [16]: 0.019
fraction unbound at 10 ug/ml [17]: 0.024
fraction unbound at 1 ug/ml [18]: 0.029
fraction unbound at 10 ug/ml [19]: 0.046
t1/2 [20]: Stable
AUC(0-t) [21]: 2830 ng·h/mL
AUC(0-inf) [22]: 2840 ng·h/mL
MRT inf [23]: 48.6 min
half-life [24]: 91.8 min
Tmax [25]: 10.2 min
Cmax [26]: 3890 ng/mL
SMILES: O=C(Nc1ccc(O)c(C(=O)O)c1)c1ccc(NC(=O)c2ccco2)cc1
inhibition [9]: Active
Activity (BXPC-3): Non-Toxic
Activity (Mus musculus): Non-Toxic

inhibition [1]: 44%
SMILES: O=C(Nc1ccc(C(=O)O)c(O)c1)c1cccc(N2C(=O)CCS2(=O)=O)c1
